Legend:
[1] = following oral administration; Gugler et al. 1975; cited from earlier work
human ApoA-I promoter [2] = details: Caco-2 cells, reported by Wong (US 20040033480); cited from earlier work
Caco-2 permeability = assay type: in vitro ADME, human; details: human; in vitro Caco-2 intestinal transport model; read-out: % Transported Paap
Excerpt: (§1) The Caco-2 cell drug transport model is widely used for screening compounds in drug discovery to assess intestinal transport and predict absorption rates.

Caco-2 cells = assay: Caco-2 permeability; assay type: in vitro ADME, human; details: in vitro Caco-2 intestinal transport model
Excerpt: as §1

human ApoA-I promoter [3] = assay: ApoA-I promoter induction in Caco-2 intestinal cells (pAI.474-Luc luciferase reporter); assay type: cell-based; details: Caco-2 cells, 15 μM, 48 hours incubation, luciferase activity vs control samples
How it was run: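 Caco-2 cells stably carrying the human ApoA-I promoter–firefly luciferase construct (pAI.474-Luc) were starved 24 h in 0.5% FBS medium, then exposed to compound at 0 to 100 μM final for 48 h at 37° C. Luciferase activity in lysates was normalized to Bradford protein and compared with solvent-only and untreated controls.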

human ApoA-I promoter [4] = details: Caco-2 cells, reported by Wong; cited from earlier work

Row | Structure (SMILES) | intestinal absorption [1] | increase of ApoA-I promoter activity over untreated control (human ApoA-I promoter [2]) [times] | Papp (Caco-2 permeability) [×10⁻⁶ cm/s] | % Transported Paap (Caco-2 cells) [×10⁻⁶ cm/s] | ApoA-I Promoter Induction (human ApoA-I promoter [3]) | exposure time of maximal stimulation of ApoA-I promoter activity (human ApoA-I promoter [4]) [h]
1 | O=c1c(O)c(-c2ccc(O)c(O)c2)oc2cc(O)cc(O)c12 [quercetin] | less than 1% | – | – | – | – | –
2 | Oc1ccc(/C=C/c2cc(O)cc(O)c2)cc1 [Resveratrol, resveratrol, reference compound] | – | 2.5 | 3.34 | 3.34 | increased | 16
